Results from patent publication US9453026B2, “ACC inhibitors and uses thereof” (Gilead Apollo, Inc., priority 2011, dated 2016).

Columns and labels:
HepG2 cells = experiment: [14C] Acetate Incorporation HepG2 Cellular Assay; format: cell-based; conditions: Hep-G2 cells, FIG. 7
Protocol: Compounds of the present invention were evaluated in a [^14C] Acetate Incorporation Assay. An exemplary procedure for the assay, which measures the incorporation of isotopically labeled acetate into fatty acids, follows. HepG2 cells were maintained in T-75 flasks containing DMEM supplemented with 2 mM 1-glutamine, penicillin G (100 units/ml), streptomycin 100 μg/ml with 10% FBS and incubated in a humidified incubator with 5% CO2 at 37° C. Cells were fed every 2-3 days. On Day 1. cells were seeded in 24 well plates at a density of 1.2×10^5 cells/ml/well with the growth medium. On Day 3 the medium was replaced with fresh medium containing 10% FBS. On Day 4 the medium was replaced with 0.5 ml of fresh medium containing test compound (in DMSO; final [DMSO] is 0.5%) and the cells were incubated at 37° C. for 1 hour. To one copy of plate, 4 ul of [2-^14C]acetate (56 mCi/mmol; 1 mCi/ml; PerkinElmer) was added and the cells were incubated at 37° C., 5% CO2 for 5 hrs. To a second copy of plate, 4 ul of cold acetate were added and the cells were incubated at 37° C., 5% CO2 for 5 hrs. This plate was used for protein concentration measurement. Medium was removed and placed in a 15 ml centrifuge tube (BD, Falcon/352096). Cells were rinsed with 1 ml PBS, then aspirated, and the rinse and aspiration steps were repeated. 0.5 ml of 0.1N NaOH were added to each well and let sit at RT to dissolve cell monolayer. The remaining cell suspension was pooled with medium. For the protein determination plate, an aliquot was removed for protein determination (25 ul). […] 5 ml petroleum ether was added per tube, shaken vigorously, centrifuged at 1000 rpm for 5 min, and 500 uL of the petroleum ether layer was transferred to tubes for Microbeta reading, then 2 ml Aquasol-2 were added to each tube, the tubes were shaken and counted with a Microbeta Liquid Scintillation Counter (Perkin Elmer).
The remaining petroleum ether layer was discarded and the aqueous phase reserved for fatty acid extractions. […] 2 ml of Aquasol-2 was added to each vial, and the vials were shaken and counted on a scintillation counter.

fatty acid synthesis = experiment: In Vivo Fatty Acid Synthesis Study ([C14]-acetate incorporated into rat liver tissue); conditions: oral, FIG. 8 and FIG. 16
Protocol: Compounds of the present invention were also assayed in an In Vivo Fatty Acid Synthesis Study as described by Harwood et al. “Isozyme-nonselective N-Substituted Bipiperidylcarboxamide Acetyl-CoA Carboxylase Inhibitors Reduce Tissue Malonyl-CoA Concentrations, Inhibit Fatty Acid Synthesis, and Increase Fatty Acid Oxidation in Cultured Cells and in Experimental Animals” Journal of Biological Chemistry (2008) 278, 37099-37111. An exemplary procedure for the assay, which measures the amount of radioactive [C^14]-acetate incorporated into rat liver tissue, follows.
Animals given food ad water ad libitum were treated orally at a volume of 1.0 mL/200 g body weight (rat) with either an aqueous solution containing 0.5% methylcellulose (vehicle), or an aqueous solution containing 0.5% methylcellulose plus test compound. One to four hours after compound administration, animals received an intraperitoneal injection of 0.5 mL of [C^14]-acetate (64 uCi/mL; […]). […] The pooled organic fractions were transferred to liquid scintillation vials, dried under nitrogen, dissolved in 7 mL of Aquasol liquid scintillation fluid, and assessed for radioactivity using a Beckman 6500 liquid scintillation counter. Results were recorded as disintigrations per minute (DPM) per milligram of tissue.

Q: Which “incorporation of isotopically labeled acetate into fatty acids” value (HepG2 cells) does the source give for `COc1ccccc1[C@H](Cn1c(=O)n(C(C)(C)C(=O)O)c(=O)c2c(C)c(-c3ncco3)sc21)OC1CCOCC1` [I-181, 2-[1-[2-(2-methoxyphenyl)-2-(oxan-4-yloxy)ethyl]-5-methyl-6-(1,3-oxazol-2-yl)-2,4-dioxo-1H,2H,3H,4H-thieno[2,3-d]pyrimidin-3-yl]-2-methylpropanoic acid] here?
A: inhibit incorporation of isotopically labeled acetate into fatty acids

Q: And the “ED50, fatty acid synthesis in rats” value (fatty acid synthesis)?
A: less than 0.3 mg/Kg body weight
